These results are taken from US6197963A, “Non-peptide peptidomimetics” (The Trustees of the University of Pennsylvania, priority 1998, dated 2001).

Where two headings read alike, the source gives them in different places. Where a SMILES comes first, the peptide text is derived from it.

For data set [1], the target named is hSSTR3 (Homo sapiens, UniProt P32745). The data set can be described thus: Binding at human SRIF receptor subtype hSSTR3. The settings on record: for Ki: TABLE 3, read-out: hSSTR 3 Ki.
Data set [2] addresses hSSTR4 (Homo sapiens, UniProt P31391). The data set can be described thus: Binding at human SRIF receptor subtype hSSTR4. Particulars: for Ki: TABLE 3, read-out: hSSTR 4 Ki.
In data set [3] the test system is five hSSTRs. The data set can be described thus: Profile / average over the five human SRIF receptor subtypes. In kind it is binding.
Data set [4] deals with T1, NK-1 receptor (Homo sapiens, UniProt P25103). The data set can be described thus: Binding at the NK-1 receptor (Examples 109-110).
The subject of data set [5] is SRIF receptors on AtT-20 cells. Particulars: cited from earlier work; for IC50: read-out: IC50 at somatostatin receptors of AtT-20 cells, Nicolaou and Hirschmann, ESCOM 1990; for affinity for the SRIF receptor: relative to O-linked isomers or other glycosides.
Data set [6] deals with β2-adrenergic receptor. The settings on record: cited from earlier work.
Data set [7] addresses T1, NK-1 receptor. Particulars: cited from earlier work.
For data set [8], the target named is T2, human neurokinin-1 receptor (NK1R) (Homo sapiens, UniProt P25103).
T2 construct: expressed in transfected cells; host or cells: COS cells
Nature of the data set: Displacement of 125I-substance P from human NK1R expressed in COS cells (Example 12). The format is binding. The settings on record: for IC50: 125I-substance P, COS cells (Example 12). The method, then: The affinity of a variety of compounds for the substance P receptor was determined employing the following procedure.
To express the cloned human neurokinin-1 receptor (NK1R) transiently in COS, the cDNA for the human NK1R was cloned into the expression vector pCDM9 which was derived from pCDM8 (Invitrogen) by inserting the ampicillin resistance gene (nucleotide 1973 to 2964 from Bluescript SK+) into the Sac II site. Transfection of 20 μg of the plasmid DNA into 10 million COS cells was achieved by electroporation in 800 μl of the transfection buffer ([…], 1.2 mM MgCl2, 2.4 mM K2 HPO4, 0.6 mM KH2PO4, […], 10 mM HEPES pH 7.4) at 260 V and 950 μF using the IBI Genezapper (IBI, New Haven, Conn.). The cells were incubated in 10% fetal calf serum, 2 mM glutamine, 100 U/ml penicillin-streptomycin, and 90% DMEM media (Gibco, Grand Island, N.Y.) in 5% CO2 at 37° C. for three days before the binding assay.
The binding assay of human NK1R expressed in COS cells is based on the use of ^125 I-substance P (^125 I-SP, from DuPont, Boston, Mass.) as a radioactively labeled ligand which competes with unlabeled substance P or any other ligand for binding to the human NK1R. Monolayer cell cultures of COS were dissociated by the non-enzymatic solution (Specialty Media, Lavallette, N.J.) and resuspended in appropriate volume of the bind buffer (50 mM Tris pH 7.5, 5 mM MnCl2, 150 mM NaCl, 0.04 mg/ml bacitracin, 0.004 mg/ml leupeptin, 0.2 mg/ml BSA, 0.01 mM phosphoramidon) such that 200 μl of the cell suspension would give rise to about 10,000 cpm of specific ^125 I-SP binding (approximately 50,000 to 200,000 cells). In the binding assay, 200 μl of cells were added to a tube containing 20 μl of 1.5 to 2.5 nM of ^125 I-SP and 20 μl of unlabeled substance P or any other test compound. The tubes were incubated at 4° C. or at room temperature for 1 hour with gentle shaking. The bound radioactivity was separated from unbound radioactivity by GF/C filter (Brandel, Gaithersburg, Md.) which was pre-wetted with 0.1 polyethylenimine. The filter was washed with 3 ml of wash buffer (50 Tris pH 7.5, 5 mM MnCl2, 150 mM NaCl) three times and its radioactivity was determined by gamma counter.
A variety of compounds were tested according to the COS cell procedure. The concentration of compound required to inhibit the binding of substance P to the human neurokinin-1 receptor by 50% was measured.
In general terms: Loss of bound radioactivity is the signal in a displacement assay; it reports binding, not function.

Data set [9] concerns SRIF receptors on AtT-20 cells. The data set can be described thus: Binding at SRIF receptors of AtT-20 cells (Examples 104-110, Tables 1-3). Details: species or system mouse; key to AtT-20 cells IC50: DNB: Did Not Bind.
In data set [10] the test system is β2-adrenergic receptor. Nature of the data set: Binding at the β2-adrenergic receptor. Particulars: among some sixty-five receptors.
For data set [11], the system named is some sixty-five other receptors. Nature of the data set: Binding at some sixty-five other receptors.
Data set [12] deals with SRIF receptor. The data set can be described thus: Displacement of 125I-CGP-23996 from SRIF receptor on AtT-20 cells (Example 13). The format is binding, mouse. The settings on record: for IC50: displacement of 125I-CGP-23996, AtT-20 cells (Example 13), read-out: IC50.
Data set [13] has as its target hSSTR1 (Homo sapiens, UniProt P30872). The data set can be described thus: Binding at human SRIF receptor subtype hSSTR1. Particulars: TABLE 3; read-out: hSSTR 1 Ki.
Data set [14] deals with hSSTR2 (Homo sapiens, UniProt P30874). Nature of the data set: Binding at human SRIF receptor subtype hSSTR2. Particulars: for Ki: TABLE 3, read-out: hSSTR 2 Ki.
In data set [15] the target is hSSTR5 (Homo sapiens, UniProt P35346). Nature of the data set: Binding at human SRIF receptor subtype hSSTR5. The settings on record: TABLE 3; read-out: hSSTR 5 Ki.
The test system of data set [16] is β-Adrenergic receptor. The data set can be described thus: Displacement of 125I-CYP from β-adrenergic receptor, AtT-20. The format is binding, mouse.
Data set [17] addresses SRIF receptor. Particulars: radioligand 125I-CGP-23996; read-out: IC50 when 125I-CGP-23996 was the radioligand; cited from earlier work.
Data set [18] has as its system SRIF receptors present on AtT-20 cells. Particulars: radioligand 125I-Tyr11-SRIF; read-out: IC50 against 125I-Tyr11-SRIF; cited from earlier work.
The mark [19] stands for this setting: TABLE 2 (Example 106), read-out: AtT-20 cells IC50.
Setting [20] is: TABLE 3 (Example 108), read-out: AtT-20 IC50.

hSSTR5, sequence (P35346 whole entry): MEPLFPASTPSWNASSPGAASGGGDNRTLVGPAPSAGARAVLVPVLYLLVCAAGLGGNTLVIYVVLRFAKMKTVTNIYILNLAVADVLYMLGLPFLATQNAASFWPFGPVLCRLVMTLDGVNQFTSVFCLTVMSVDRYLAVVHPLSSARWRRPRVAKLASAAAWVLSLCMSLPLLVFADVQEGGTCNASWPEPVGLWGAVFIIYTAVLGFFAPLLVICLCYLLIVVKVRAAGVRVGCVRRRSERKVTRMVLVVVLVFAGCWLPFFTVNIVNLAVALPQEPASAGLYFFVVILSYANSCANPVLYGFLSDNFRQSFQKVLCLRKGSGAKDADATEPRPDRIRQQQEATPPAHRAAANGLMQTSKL
T2 sequence (P25103 whole entry): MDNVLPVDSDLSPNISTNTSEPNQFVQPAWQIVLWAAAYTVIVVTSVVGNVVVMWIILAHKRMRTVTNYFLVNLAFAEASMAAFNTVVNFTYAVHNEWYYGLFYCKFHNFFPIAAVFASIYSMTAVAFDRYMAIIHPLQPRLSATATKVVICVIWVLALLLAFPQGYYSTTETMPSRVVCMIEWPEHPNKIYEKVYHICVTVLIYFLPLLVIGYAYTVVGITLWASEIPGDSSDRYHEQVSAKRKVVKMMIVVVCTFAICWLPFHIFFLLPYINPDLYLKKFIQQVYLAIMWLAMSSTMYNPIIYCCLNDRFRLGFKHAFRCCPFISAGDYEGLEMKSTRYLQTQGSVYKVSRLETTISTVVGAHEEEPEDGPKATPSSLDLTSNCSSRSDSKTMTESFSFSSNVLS
T1 sequence (P25103 whole entry): as above
hSSTR1, sequence (P30872 whole entry): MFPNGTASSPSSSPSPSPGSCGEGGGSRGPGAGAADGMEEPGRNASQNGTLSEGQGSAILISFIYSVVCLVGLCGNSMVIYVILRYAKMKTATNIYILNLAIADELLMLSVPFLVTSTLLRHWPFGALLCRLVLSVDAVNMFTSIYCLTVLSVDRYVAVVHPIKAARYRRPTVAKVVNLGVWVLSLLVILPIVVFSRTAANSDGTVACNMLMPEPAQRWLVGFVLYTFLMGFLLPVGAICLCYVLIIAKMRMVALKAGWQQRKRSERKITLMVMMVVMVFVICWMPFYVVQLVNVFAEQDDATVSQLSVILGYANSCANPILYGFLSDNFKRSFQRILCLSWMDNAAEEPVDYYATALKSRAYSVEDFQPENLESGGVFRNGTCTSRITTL
hSSTR4, sequence (P31391 whole entry): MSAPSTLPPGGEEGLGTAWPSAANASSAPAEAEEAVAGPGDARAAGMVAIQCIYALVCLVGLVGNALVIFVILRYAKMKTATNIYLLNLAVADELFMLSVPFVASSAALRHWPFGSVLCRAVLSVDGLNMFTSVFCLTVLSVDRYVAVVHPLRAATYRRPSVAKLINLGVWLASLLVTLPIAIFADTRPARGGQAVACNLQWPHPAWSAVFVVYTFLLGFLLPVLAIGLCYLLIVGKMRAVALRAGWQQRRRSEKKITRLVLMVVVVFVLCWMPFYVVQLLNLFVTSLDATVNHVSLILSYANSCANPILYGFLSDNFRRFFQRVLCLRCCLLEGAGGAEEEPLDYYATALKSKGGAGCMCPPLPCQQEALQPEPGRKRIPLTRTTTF
hSSTR3, sequence (P32745 whole entry): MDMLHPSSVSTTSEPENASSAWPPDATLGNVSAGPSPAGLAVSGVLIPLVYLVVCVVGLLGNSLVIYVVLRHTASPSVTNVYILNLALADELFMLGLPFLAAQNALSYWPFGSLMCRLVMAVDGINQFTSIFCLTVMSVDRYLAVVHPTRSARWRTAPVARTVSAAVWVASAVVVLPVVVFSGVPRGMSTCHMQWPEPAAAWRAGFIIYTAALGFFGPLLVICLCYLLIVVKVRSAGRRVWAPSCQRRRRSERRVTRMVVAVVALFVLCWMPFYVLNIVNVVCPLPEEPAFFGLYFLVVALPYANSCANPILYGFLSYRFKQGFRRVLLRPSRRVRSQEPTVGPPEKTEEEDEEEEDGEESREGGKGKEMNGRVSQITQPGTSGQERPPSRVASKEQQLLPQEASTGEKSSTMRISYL
hSSTR2, sequence (P30874 whole entry): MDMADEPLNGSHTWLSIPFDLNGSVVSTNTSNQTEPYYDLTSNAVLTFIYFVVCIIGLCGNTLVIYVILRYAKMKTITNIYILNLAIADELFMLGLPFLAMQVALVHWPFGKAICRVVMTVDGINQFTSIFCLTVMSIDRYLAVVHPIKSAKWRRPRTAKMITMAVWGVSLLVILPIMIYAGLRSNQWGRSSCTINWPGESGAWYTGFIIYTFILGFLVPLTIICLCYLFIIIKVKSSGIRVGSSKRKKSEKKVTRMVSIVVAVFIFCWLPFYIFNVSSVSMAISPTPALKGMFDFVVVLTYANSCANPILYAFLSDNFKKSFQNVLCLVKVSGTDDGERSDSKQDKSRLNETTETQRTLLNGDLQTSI

Consider `NCCCCCOC[C@H]1O[C@@H](OCCc2c[nH]c3ccccc23)[C@H](OCc2ccccc2)[C@@H](OCc2ccccc2)[C@@H]1OCc1ccccc1` [III-4a, 2-(1H-Indol-3-yl)ethyl 2,3,4-Tri-O-benzyl-6-O-(5-aminopentyl)-β-D-glucopyranoside], for which the Ki was 2800 nM in data set [1] and 1100 nM in data set [2]. The “hSSTR subtype affinity profile” value in [3] is “high affinities for hSSTR2 and hSSTR4 and a low affinity for SSTR1”. Further, the “binding of the NK-1 receptor” value in [4] was “did not bind”. Besides, the IC50 is 150 nM in [4] (read-out: affinity at the NK-1 receptor) and about 15000 nM in data set [5]. In data set [6], the “binding / antagonism at the β2-adrenergic receptor” value was “bind the β2 -adrenergic receptor as antagonists”. Besides, the “binding / antagonism at the NK-1 receptor” value in [7] was “potent antagonist ligands”.

Compound `CC(=O)NCCCCCOC[C@H]1O[C@@H](OCCc2c[nH]c3ccccc23)[C@H](OCc2ccccc2)[C@@H](OCc2ccccc2)[C@@H]1OCc1ccccc1` [III-4d] registered an IC50 in data set [8] of 56 nM. For the same compound, in data set [9], the “activity / affinity at SRIF receptors of AtT-20 cells” value was “inactive”. Besides, the “binding of the SRIF receptors” value in [9] (among some sixty-five receptors) is listed as “did not bind”. For the same compound, the “binding of the β2-adrenergic receptors” value in data set [10] is given as “did not bind”. In addition, the “binding of some sixty-five other receptors” value in [11] was “did not bind some sixty-five other receptors”.

On to `OCCCCCNC[C@H]1O[C@@H](OCCc2c[nH]c3ccccc23)[C@H](OCc2ccccc2)[C@@H](OCc2ccccc2)[C@@H]1OCc1ccccc1` [III-4e, 2-(1H-Indol-3-yl)ethyl 2,3,4-Tri-O-benzyl-6-amino-6-deoxy-6-N-(5-hydroxypentyl)-β-D-glucopyranoside], for which the values for the IC50 in [12], in [8] and in [9] (setting [19]) were 9500 nM, 120 nM and 14000 nM, respectively. Besides, the “affinity for the SRIF receptor” value in data set [5] is “about the same as those of III-4a and III-5b”.

For `NCCCCCOC[C@H]1O[C@@H](OCCc2c[nH]c3ccccc23)[C@H](OCc2ccccc2)C[C@@H]1OCc1ccccc1` [III-5a, 2-(1H-Indol-3-yl)ethyl 2,4-Di-O-benzyl-3-deoxy-6-O-(5-aminopentyl)-β-D-glucopyranoside], the IC50 in data set [9] (TABLE 1 (Example 105), read-out: AtT-20 cells 50 IC) is 8400 nM; in data set [9] (setting [20]), 8400 nM; in data set [5], about 10000 nM. Also, the Ki in [13] came out at 4100 nM; in data set [14], 3100 nM; in data set [1], 3300 nM; in data set [2], 1700 nM; in [15] it was 5100 nM. Further, in data set [3], the “hSSTR subtype affinity profile” value was “high affinities for hSSTR2 and hSSTR4 and a low affinity for SSTR1”. Besides, the “binding / antagonism at the β2-adrenergic receptor” value in [6] was “bind the β2 -adrenergic receptor as antagonists”. Moreover, in data set [7], the “binding / antagonism at the NK-1 receptor” value is on record as “potent antagonist ligands”.

With `OCCCCCNC[C@H]1O[C@@H](OCCc2c[nH]c3ccccc23)[C@H](OCc2ccccc2)C[C@@H]1OCc1ccccc1` [III-5c, 2-(1H-Indol-3-yl)ethyl 2,4-Di-O-benzyl-3,6-dideoxy-6-amino-6-N-(5-hydroxypentyl)-β-D-glucopyranoside], the figures for the IC50 in data set [12], in [8] and in data set [9] (setting [19]) were 1300 nM, 180 nM and 5100 nM, respectively. For the same compound, the “affinity for the SRIF receptor” value in data set [5] was “about the same as those of III-4a and III-5b”.

As to `NCCCCC(N)NC[C@H]1O[C@@H](OCCc2c[nH]c3ccccc23)[C@H](OCc2ccccc2)[C@@H](OCc2ccccc2)[C@@H]1OCc1ccccc1` (stereo partly drawn) [IV-42, 2-(1H-indol-3-yl)ethyl 2,3,4-tri-O-benzyl-6-N-(1',5'-diamino-pentyl)-β-D-glucopyranoside], the “activity / affinity at SRIF receptors of AtT-20 cells” value in [9] is recorded as “did not result in an increase in affinity”. Also, the “AtT-20 cells IC50” value in data set [9] (TABLE 2 (Example 106)) is on record as “DNB”. Further, in [9] (setting [20]), the IC50 was 13000 nM. Also, the Ki in data set [13] worked out at 2100 nM; in data set [14] it was 600 nM; in data set [1], 600 nM; in [2], 500 nM; in data set [15], 1300 nM; in data set [3] (average over hSSTRs), 1000 nM. Moreover, in data set [14], the “affinity at SSTR 2” value was “submicromolar affinities”. In addition, the “affinity at SSTR 3” value in data set [1] is “submicromolar affinities”. In addition, the “affinity at SSTR 4” value in data set [2] is given as “submicromolar affinities”.

For the compound `NCCCCCOC[C@H]1O[C@@H](OCCc2c[nH]c3ccccc23)[C@H](OCc2c[nH]cn2)C[C@@H]1OCc1ccccc1` [IV-60, 2-(1H-Indol-3-yl)ethyl 2-O-(4'-methylene-1H-imidazole)-3-deoxy-4-O-benzyl-6-O-(5'-aminopentyl)-β-D-glucopyranoside], the IC50 in [9] (setting [20]) came to 4100 nM. The Ki in data set [13] is 6800 nM; in data set [14], 4600 nM; in data set [1], 6200 nM; in data set [2] it was 3000 nM; in data set [15] it was 4000 nM. In addition, the “hSSTR subtype affinity profile” value in [3] was “atypically high affinity for hSSTR5”.

Regarding `C[C@@H](O)[C@@H]1NC(=O)[C@H](CCCCN)NC(=O)[C@@H](Cc2c[nH]c3ccccc23)NC(=O)[C@H](Cc2ccccc2)NC(=O)[C@@H]2CCCN2C(=O)[C@H](Cc2ccccc2)NC1=O` [L-363,301, reference compound] (HELM PEPTIDE1{P.F.[dW].K.T.F}$PEPTIDE1,PEPTIDE1,1:R1-6:R2$$$V2.0), the IC50 in data set [12] came out at 18.7 nM. Besides, the “binding / antagonism at the β2-adrenergic receptor” value in [6] is given as “do not bind”. Besides, the “binding / antagonism at the NK-1 receptor” value in [7] is “do not bind”.

Consider `CO[C@@H]1O[C@H](COCCCCCN)[C@@H](OCc2ccccc2)[C@H](OCc2ccccc2)[C@H]1OCc1ccccc1` [Methyl 6-O-(5-aminopentyl)-2,3,4-tri-O-benzyl-β-D-glucopyranoside], for which, in data set [12], the “binding by the SRIF receptor” value is “is bound by the substance P and SRIF receptors”; the IC50 turned out to be 40000 nM. In data set [8], the “binding by the substance P receptor” value was “is bound by the substance P and SRIF receptors”; the IC50 was found to be 400 nM. Also, in [16], the “binding of the β-adrenergic receptor” value was “does not bind the β-adrenergic receptor”. In [16] (125I-CYP (0.1 nM), AtT-20), this compound came in with an Inhibition of 0%.

With somatostatin [SRIF, reference compound], the IC50 is 9.3 nM in data set [12], 9.3 nM in [17], about 9.3 nM in data set [5] and 0.83 nM in data set [18]. Also, the “hSSTR subtype affinity profile” value in data set [3] is “decreases in the order SSTR2>>SSTR1>SSTR3>SSTR4 and SSTR5”. Also, the “binding / antagonism at the β2-adrenergic receptor” value in [6] is listed as “do not bind”. In addition, in data set [7], the “binding / antagonism at the NK-1 receptor” value was “do not bind”.

The term Ki denotes a dissociation constant, usually derived from enzyme kinetics or from competition with a known ligand. As usually defined, the Inhibition is the percentage by which the read-out fell short of the control.
